Measured values from patent EP0745595A1, “3-(3-Aryloxyphenyl)-1-(substituted methyl)-s-triazine-2,4,6-oxo or thiotrione herbicidal agents” (American Cyanamid Company, priority 1995, dated 1996).

Key:
Format in all cases: in vivo
[1] = system: ECHINOCHLOA CRUS-GALLI, (L) BEAU; experiment: Postemergence herbicidal evaluation, ECHCG (Barnyardgrass); design: key to ECHCG rating / Herbicidal effect rating, ECHCG / ECHCG: 0-9 visual rating scale vs untreated control
Outline: (§1)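 Each value is a 0–9 visual rating of plant appearance compared with control, recorded 4–5 weeks after a 0.125–0.500 kg/ha spray, with multiple tests averaged.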

ZEA MAYS L. = experiment: Postemergence herbicidal evaluation, ZEAMX (Corn, Field)
Outline: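 This greenhouse postemergence test treated corn plants about two weeks old. Compounds in a 50/50 acetone/water mixture with 0.5% TWEEN®20 were applied through a spray nozzle at 40 psi. After four to five weeks, injury was scored 0-9 against an untreated control, judging stand, vigor, malformation, size, chlorosis and overall appearance. Repeated tests were averaged.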

[2] = system: ABUTILON THEOPHRASTI, MEDIC.; experiment: Postemergence herbicidal evaluation, ABUTH (Velvetleaf); settings: for ABUTH, herbicide rating (0-9): rated four to five weeks after treatment, averaged
Outline: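 This postemergence herbicide test used two-week-old velvetleaf seedlings grown in jiffy flats. Each compound was sprayed at 40 psi as a dispersion in 50/50 acetone/water with 0.5% TWEEN®20 surfactant. Plants then received routine greenhouse care. After four to five weeks, injury was scored visually on a 0-9 scale against a control, and replicate tests were averaged.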

CHENOPODIUM ALBUM, L. = experiment: Preemergence herbicidal evaluation, CHEAL (Lambsquarters, Common); settings: for CHEAL rating: four to five weeks after treatment
Outline: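 Seeds sown in potting soil cups, then sprayed preemergence with aqueous acetone compound solution at about 0.125 to 0.50 kg per hectare. Greenhouse-grown, rated 4–5 weeks after treatment on a 0–9 visual scale against control.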

GALIUM APARINE = experiment: Postemergence herbicidal evaluation, GALAP (Galium); design: key to GALAP rating / Herbicidal effect rating, GALAP / GALAP: 0-9 visual rating scale vs untreated control; settings: for GALAP, herbicide rating (0-9): rated four to five weeks after treatment, averaged
Outline: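 In this postemergence greenhouse test, two-week-old Galium aparine seedlings grown in jiffy flats received a 40 psi spray of compound in acetone/water (50/50) with 0.5% TWEEN®20 surfactant. After four to five weeks, stand, vigor, malformation, size, chlorosis and overall appearance were compared with untreated controls on a 0-9 scale, averaging multiple tests.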

[3] = system: AMBROSIA ARTEMISIIFOLIA, L.; experiment: Postemergence herbicidal evaluation, AMBEL (Ragweed, Common)
Outline: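 Postemergence herbicidal activity on AMBEL (common ragweed) was assessed on two-week-old seedlings grown in jiffy flats. Treatment solutions of 50/50 acetone/water with 0.5% TWEEN®20 surfactant were sprayed at 40 psi. After four to five weeks in the greenhouse, plants were scored 0-9 against a control for stand, vigor, malformation, size, chlorosis and overall appearance, with multiple tests averaged.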

IPOMOEA SPP. = experiment: Postemergence herbicidal evaluation, IPOSS (Morningglory spp.)
Outline: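 In this greenhouse postemergence herbicide test on Ipomoea spp. (morningglory), compounds in 50/50 acetone/water with 0.5% TWEEN®20 were sprayed at 40 psi onto seedlings about two weeks old grown in jiffy flats. After four to five weeks, injury was scored on a 0-9 scale covering stand, vigor, malformation, size, chlorosis and overall appearance versus control, with repeat tests averaged.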

[4] = system: SETARIA VIRIDIS, (L) BEAU; experiment: Postemergence herbicidal evaluation, SETVI (Foxtail, Green); design: key to SETVI rating / Herbicidal effect rating, SETVI / SETVI: 0-9 visual rating scale vs untreated control; settings: for SETVI, herbicide rating (0-9): rated four to five weeks after treatment, averaged
Outline: as §1

[5] = system: TRITICUM AESTIVUM, CV. APOLLO; experiment: Postemergence herbicidal evaluation, TRZAWO (Wheat, Winter, CV. APOLLO)
Outline: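 This greenhouse postemergence test applied compounds to roughly two-week-old wheat seedlings grown in jiffy flats. The spray solution was 50/50 acetone/water with 0.5% TWEEN®20, a polyoxyethylene sorbitan monolaurate, sprayed from a nozzle run at 40 psi. After four to five weeks of standard greenhouse care, injury was scored from 0 to 9 by comparing stand, vigor, malformation, size, chlorosis and overall appearance with a control. Multiple tests were averaged.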

[6] = system: ORYZA SATIVA, L. TEBONNET; experiment: Rice tolerance to post-transplant applications under flooded paddy conditions, ORYSAT (Rice, Tebonnet); settings: post-transplant rice, rated three to four weeks after treatment;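 further: applied to flooded soil surface three days after transplanting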
Outline: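 Visual 0-9 rating against untreated control (stand, vigor, malformation, size, chlorosis, overall appearance), taken 3-4 weeks after treatment. Flooded silt loam, water at 1.5-3 cm; two 10-day-old seedlings per pot; compound applied to flooded soil surface 3 days post-transplant at ~0.5-0.063 kg/ha.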

CASSIA OBTUSIFOLIA, L. = experiment: Postemergence herbicidal evaluation, CASOB (Sicklepod); design: key to CASOB rating / Herbicidal effect rating, CASOB / CASOB: 0-9 visual rating scale vs untreated control; settings: for CASOB, herbicide rating (0-9): rated four to five weeks after treatment, averaged
Outline: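 Postemergence foliar spray at approximately 0.125–0.500 kg/ha onto two-week seedlings; greenhouse hold, then 0–9 visual injury rating after 4–5 weeks.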

COC(=O)Cn1c(=O)n(C)c(=O)n(-c2cc(Oc3c(F)cc(C(F)(F)F)cc3Cl)ccc2Br)c1=O [Compound 2, Methyl 3-{2-bromo-5-[(2-chloro-α,α,α,6-tetrafluoro-p-tolyl)oxy]phenyl}tetrahydro-5-methyl-2,4,6-trioxo-s-triazine-1(2H)-acetate]
5.0: Herbicidal effect rating, ECHCG ([1]; 0.063 kg/ha)
7.0: Herbicidal effect rating, TRZAWO ([5]; 0.063 kg/ha)
7.7: Herbicidal effect rating, ZEAMX (ZEA MAYS L.; 0.063 kg/ha)
9.0: Herbicidal effect rating, ECHCG ([1]; 0.250 kg/ha) | Herbicidal effect rating, ECHCG ([1]; 0.500 kg/ha) | Herbicidal effect rating, ABUTH ([2]; 0.125 kg/ha) | Herbicidal effect rating, ABUTH ([2]; 0.250 kg/ha) | Herbicidal effect rating, ABUTH ([2]; 0.500 kg/ha) | ABUTH, herbicide rating (0-9) ([2]; Rate 0.125 kg/ha) | ABUTH, herbicide rating (0-9) ([2]; Rate 0.250 kg/ha) | ABUTH, herbicide rating (0-9) ([2]; Rate 0.500 kg/ha) | CHEAL (CHENOPODIUM ALBUM, L.; Rate 0.063 kg/ha) | CHEAL (CHENOPODIUM ALBUM, L.; Rate 0.125 kg/ha) | CHEAL rating (CHENOPODIUM ALBUM, L.; Rate 0.125 kg/ha) | CHEAL (CHENOPODIUM ALBUM, L.; Rate 0.250 kg/ha) | CHEAL rating (CHENOPODIUM ALBUM, L.; Rate 0.250 kg/ha) | CHEAL (CHENOPODIUM ALBUM, L.; Rate 0.500 kg/ha) | CHEAL rating (CHENOPODIUM ALBUM, L.; Rate 0.500 kg/ha) | Herbicidal effect rating, GALAP (GALIUM APARINE; 0.063 kg/ha) | Herbicidal effect rating, GALAP (GALIUM APARINE; 0.125 kg/ha) | Herbicidal effect rating, GALAP (GALIUM APARINE; 0.250 kg/ha) | Herbicidal effect rating, GALAP (GALIUM APARINE; 0.500 kg/ha) | GALAP, herbicide rating (0-9) (GALIUM APARINE; Rate 0.125 kg/ha) | GALAP, herbicide rating (0-9) (GALIUM APARINE; Rate 0.250 kg/ha) | GALAP, herbicide rating (0-9) (GALIUM APARINE; Rate 0.500 kg/ha) | Herbicidal effect rating, IPOSS (IPOMOEA SPP.; 0.250 kg/ha) | Herbicidal effect rating, IPOSS (IPOMOEA SPP.; 0.500 kg/ha) | Herbicidal effect rating, SETVI ([4]; 0.125 kg/ha) | Herbicidal effect rating, SETVI ([4]; 0.250 kg/ha) | Herbicidal effect rating, SETVI ([4]; 0.500 kg/ha) | SETVI, herbicide rating (0-9) ([4]; Rate 0.125 kg/ha) | SETVI, herbicide rating (0-9) ([4]; Rate 0.250 kg/ha) | SETVI, herbicide rating (0-9) ([4]; Rate 0.500 kg/ha) | Herbicidal effect rating, CASOB (CASSIA OBTUSIFOLIA, L.; 0.063 kg/ha) | Herbicidal effect rating, CASOB (CASSIA OBTUSIFOLIA, L.; 0.125 kg/ha) | Herbicidal effect rating, CASOB (CASSIA OBTUSIFOLIA, L.; 0.250 kg/ha) | Herbicidal effect rating, CASOB (CASSIA OBTUSIFOLIA, L.; 0.500 kg/ha) | CASOB, herbicide rating (0-9) (CASSIA OBTUSIFOLIA, L.; Rate 0.125 kg/ha) | CASOB, herbicide rating (0-9) (CASSIA OBTUSIFOLIA, L.; Rate 0.250 kg/ha) | CASOB, herbicide rating (0-9) (CASSIA OBTUSIFOLIA, L.; Rate 0.500 kg/ha)
4.0: ORYSAT herbicidal rating (rice tolerance) ([6]; Rate 0.125 kg/ha)
2.5: ORYSAT herbicidal rating (rice tolerance) ([6]; Rate 0.063 kg/ha)
8.4: Herbicidal effect rating, ZEAMX (ZEA MAYS L.; 0.125 kg/ha)
8.0: Herbicidal effect rating, AMBEL ([3]; 0.063 kg/ha) | Herbicidal effect rating, AMBEL ([3]; 0.500 kg/ha) | Herbicidal effect rating, TRZAWO ([5]; 0.250 kg/ha)
8.3: Herbicidal effect rating, ZEAMX (ZEA MAYS L.; 0.250 kg/ha) | Herbicidal effect rating, ZEAMX (ZEA MAYS L.; 0.500 kg/ha) | Herbicidal effect rating, IPOSS (IPOMOEA SPP.; 0.063 kg/ha)
8.5: Herbicidal effect rating, TRZAWO ([5]; 0.500 kg/ha)
8.8: Herbicidal effect rating, ABUTH ([2]; 0.063 kg/ha)
7.5: Herbicidal effect rating, AMBEL ([3]; 0.250 kg/ha) | Herbicidal effect rating, SETVI ([4]; 0.063 kg/ha) | Herbicidal effect rating, TRZAWO ([5]; 0.125 kg/ha)
5.5: ORYSAT herbicidal rating (rice tolerance) ([6]; Rate 0.250 kg/ha)
8.7: Herbicidal effect rating, IPOSS (IPOMOEA SPP.; 0.125 kg/ha)
7.3: Herbicidal effect rating, AMBEL ([3]; 0.125 kg/ha)
6.7: Herbicidal effect rating, ECHCG ([1]; 0.125 kg/ha) | ORYSAT herbicidal rating (rice tolerance) ([6]; Rate 0.500 kg/ha)
